One data set relates to T. cruzi Tulahuen CL2 β-galactosidase strain. Put plainly: Antitrypanosomal screening, anti-T. cruzi (trypomastigote) activity, CPRG photometric method. The conditions noted are these: Trypanosoma cruzi; Tulahuen CL2 β-galactosidase strain on MRC-5SV2; values in parentheses mean ± SEM of two experiments. In kind it is cell-based. On the procedure: A preliminary assay was conducted to evaluate the analogs’ in vitro cytotoxicity and antitrypanosomatid activity against T. cruzi Tulahuen strain (Table ). […] However, the promising results of analog 16 encouraged us to conduct more in-depth studies on this compound.
Anti-parasitic assays were conducted following established protocols outlined in earlier literature. In brief, for assessing anti-T. cruzi activity, the Tulahuen CL2 β-galactosidase strain (nifurtimox-sensitive) was employed and maintained on MRC-5SV2 (human lung fibroblast). A total of 4 × 10^3 cells were infected with 4 × 10^4 parasites per well. The synthesized analogs were tested at concentrations ranging from 1.56 to 50.00 μM. Parasite burdens were evaluated after the addition of the substrate CPRG (chlorophenol red ß-D-galactopyranoside). The change in color was measured spectrophotometrically at 540 nm after 4 h of incubation at 37°C. In all assays, parasite growth was compared to untreated-infected controls (100% growth) and noninfected controls (0% growth). Results were expressed as the percentage of parasite reduction at different drug concentrations and used to calculate IC50 values from the dose–response curves.
For the compound `O=C(Cn1cc(-c2ccc([N+](=O)[O-])cc2)nn1)NCc1ccccn1` [Compound 10, 2-(4-(4-Nitrophenyl)-1H-1,2,3-triazol-1-yl)-N-(yridine-2-ylmethyl)acetamide], the IC50 was > 50 µM.

`O=C(Cn1cc(-c2ccc([N+](=O)[O-])cc2)nn1)NCc1cccnc1` [Compound 11, 2-(4-(4-Nitrophenyl)-1H-1,2,3-triazol-1-yl)-N-((pyridin-3-yl)methyl)acetamide]: the 50% inhibitory concentration (IC50) is > 50 µM.

Consider `O=C(Cn1cc(-c2ccc([N+](=O)[O-])cc2)nn1)NCc1ccc(O)cc1` [Compound 12, N-(4-Hydroxybenzyl)-2-(4-(4-nitrophenyl)-1H-1,2,3-triazol-1-yl)acetamide], for which the IC50 is 31 µM.

As for `N#Cc1ccc(CNC(=O)Cn2cc(-c3ccc([N+](=O)[O-])cc3)nn2)cc1` [Compound 13, N-(4-Cyanobenzyl)-2-(4-(4-nitrophenyl)-1H-1,2,3-triazol-1-yl)acetamide], the 50% inhibitory concentration (IC50) is > 50 µM.

Take `N#Cc1ccc(Cn2cc(-c3ccc([N+](=O)[O-])cc3)nn2)cc1` [Compound 15, 4-((4-(4-Nitrophenyl)-1H-1,2,3-triazol-1-yl)methyl)benzonitrile]: the IC50 is > 50 µM.

For `O=C(O)Cn1cc(-c2ccc([N+](=O)[O-])cc2)nn1` [Compound 17, 2-(4-(4-Nitrophenyl)-1H-1,2,3-triazol-1-yl)acetic Acid], the IC50 was > 50 µM.

Consider `O=C(O)c1ccc(Cn2cc(-c3ccc([N+](=O)[O-])cc3)nn2)cc1` [Compound 18, 4-((4-(4-Nitrophenyl)-1H-1,2,3-triazol-1-yl)methyl)benzoic Acid], for which the half-inhibitory concentration (IC50) was > 50 µM.

For the compound `O=[N+]([O-])c1ccc(Cn2cc(-c3ccc(CO)cc3)nn2)cc1` [Compound 21, (4-(1-(4-Nitrobenzyl)-1H-1,2,3-triazol-4-yl)phenyl)methanol], the IC50 is > 50 µM.

Consider `O=[N+]([O-])c1ccc(Cn2cc(-c3cccnc3)nn2)cc1` [Compound 22, 3-(1-(4-Nitrobenzyl)-1H-1,2,3-triazol-4-yl)pyridine], for which the IC50 turned out to be 4.17 µM.

For the compound `Nc1ccc(-c2cn(Cc3ccc([N+](=O)[O-])cc3)nn2)cc1` [Compound 23, 4-(1-(4-Nitrobenzyl)-1H-1,2,3-triazol-4-yl)aniline], the IC50 is > 50 µM.

On to `O=[N+]([O-])c1ccc(Cn2cc(-c3ccc([N+](=O)[O-])cc3)nn2)cc1` [Compound 24, 1-(4-Nitrobenzyl)-4-(4-nitrophenyl)-1H-1,2,3-triazole], for which the IC50 was > 50 µM.

With `Cn1cncc1-c1cn(Cc2ccc([N+](=O)[O-])cc2)nn1` [Compound 25, 4-(1-Methyl-1H-imidazol-5-yl)-1-(4-nitrobenzyl)-1H-1,2,3-triazole], the 50% inhibitory concentration (IC50) was > 50 µM.

Turning to `COc1cccc(-c2cn(Cc3ccc([N+](=O)[O-])cc3)nn2)c1` [Compound 26, 4-(3-Methoxyphenyl)-1-(4-nitrobenzyl)-1H-1,2,3-triazole], the concentration for half-maximal inhibition (IC50) is > 50 µM.

For the compound `O=[N+]([O-])c1ccc(Cn2cc(-c3ccccc3CO)nn2)cc1` [Compound 27, (2-(1-(4-Nitrobenzyl)-1H-1,2,3-triazol-4-yl)phenyl)methanol], the IC50 is > 50 µM.

As for `COc1cc(OC)cc(-c2cn(Cc3ccc([N+](=O)[O-])cc3)nn2)c1` [Compound 28, 4-(3,5-Dimethoxyphenyl)-1-(4-nitrobenzyl)-1H-1,2,3-triazole], the IC50 is > 50 µM.

System in another data set: not listed separately
Description: Preliminary cytotoxicity assay, resazurin. It counts as cell-based. The conditions noted are these: MRC-5SV2 lung fibroblast cells; human MRC-5 cell line, 3 days incubation. On the procedure: MRC-5SV2 cell cytotoxicity was assessed following the methodology outlined in earlier literature. Briefly, cells at a concentration of 1.5 × 10^5 cells/mL were cultured with compound dilutions at 37 °C and 5% CO2. Cell growth was compared to untreated-control wells (100% cell growth) and medium-control wells (0% cell growth). After 3 days of incubation, cell viability was fluorometrically assessed following the addition of 50-μL resazurin per well. Fluorescence was measured after 4 h at 37 °C (λex 550 nm, λem 590 nm). The results were expressed as the percentage reduction in cell growth/viability compared to control wells, and an IC50 value was determined.
For `O=C(Cn1cc(-c2ccc([N+](=O)[O-])cc2)nn1)NCc1ccccn1` [Compound 10, 2-(4-(4-Nitrophenyl)-1H-1,2,3-triazol-1-yl)-N-(yridine-2-ylmethyl)acetamide], the CC50 at 3 days was > 50 µM.

For `O=C(Cn1cc(-c2ccc([N+](=O)[O-])cc2)nn1)NCc1cccnc1` [Compound 11, 2-(4-(4-Nitrophenyl)-1H-1,2,3-triazol-1-yl)-N-((pyridin-3-yl)methyl)acetamide], the 50% cytotoxic concentration (CC50) at 3 days is > 50 µM.

`O=C(Cn1cc(-c2ccc([N+](=O)[O-])cc2)nn1)NCc1ccc(O)cc1` [Compound 12, N-(4-Hydroxybenzyl)-2-(4-(4-nitrophenyl)-1H-1,2,3-triazol-1-yl)acetamide]: the half-maximal cytotoxic concentration (CC50) at 3 days was > 50 µM.

Consider `N#Cc1ccc(CNC(=O)Cn2cc(-c3ccc([N+](=O)[O-])cc3)nn2)cc1` [Compound 13, N-(4-Cyanobenzyl)-2-(4-(4-nitrophenyl)-1H-1,2,3-triazol-1-yl)acetamide], for which the half-maximal cytotoxic concentration (CC50) at 3 days was > 50 µM.

With `N#Cc1ccc(Cn2cc(-c3ccc([N+](=O)[O-])cc3)nn2)cc1` [Compound 15, 4-((4-(4-Nitrophenyl)-1H-1,2,3-triazol-1-yl)methyl)benzonitrile], the 50% cytotoxic concentration (CC50) at 3 days is > 50 µM.

As to `O=C(O)Cn1cc(-c2ccc([N+](=O)[O-])cc2)nn1` [Compound 17, 2-(4-(4-Nitrophenyl)-1H-1,2,3-triazol-1-yl)acetic Acid], the 50% cytotoxic concentration (CC50) at 3 days is > 50 µM.

In the case of `O=C(O)c1ccc(Cn2cc(-c3ccc([N+](=O)[O-])cc3)nn2)cc1` [Compound 18, 4-((4-(4-Nitrophenyl)-1H-1,2,3-triazol-1-yl)methyl)benzoic Acid], the CC50 at 3 days is > 50 µM.

For `O=[N+]([O-])c1ccc(Cn2cc(-c3ccc(CO)cc3)nn2)cc1` [Compound 21, (4-(1-(4-Nitrobenzyl)-1H-1,2,3-triazol-4-yl)phenyl)methanol], the CC50 at 3 days is > 50 µM.

Compound `O=[N+]([O-])c1ccc(Cn2cc(-c3cccnc3)nn2)cc1` [Compound 22, 3-(1-(4-Nitrobenzyl)-1H-1,2,3-triazol-4-yl)pyridine] came in with a cytotoxic concentration (CC50) at 3 days of 5.06 µM.

Consider `Nc1ccc(-c2cn(Cc3ccc([N+](=O)[O-])cc3)nn2)cc1` [Compound 23, 4-(1-(4-Nitrobenzyl)-1H-1,2,3-triazol-4-yl)aniline], for which the CC50 at 3 days is > 50 µM.

Take `Cn1cncc1-c1cn(Cc2ccc([N+](=O)[O-])cc2)nn1` [Compound 25, 4-(1-Methyl-1H-imidazol-5-yl)-1-(4-nitrobenzyl)-1H-1,2,3-triazole]: the half-maximal cytotoxic concentration (CC50) at 3 days is > 50 µM.

For `COc1cccc(-c2cn(Cc3ccc([N+](=O)[O-])cc3)nn2)c1` [Compound 26, 4-(3-Methoxyphenyl)-1-(4-nitrobenzyl)-1H-1,2,3-triazole], the cytotoxic concentration (CC50) at 3 days was > 50 µM.

On to `O=[N+]([O-])c1ccc(Cn2cc(-c3ccccc3CO)nn2)cc1` [Compound 27, (2-(1-(4-Nitrobenzyl)-1H-1,2,3-triazol-4-yl)phenyl)methanol], for which the CC50 at 3 days is > 50 µM.

For the compound `COc1cc(OC)cc(-c2cn(Cc3ccc([N+](=O)[O-])cc3)nn2)c1` [Compound 28, 4-(3,5-Dimethoxyphenyl)-1-(4-nitrobenzyl)-1H-1,2,3-triazole], the CC50 at 3 days is > 50 µM.

Staying with this data set, now noted: human MRC-5 cell line, 3 days incubation.
Consider `O=[N+]([O-])c1ccc(Cn2cc(-c3ccc([N+](=O)[O-])cc3)nn2)cc1` [Compound 24, 1-(4-Nitrobenzyl)-4-(4-nitrophenyl)-1H-1,2,3-triazole], for which the CC50 at 3 days is > 50 µM.

System in the next data set: not listed separately
Description: Cytotoxicity against primary mouse macrophages. In kind it is cell-based. The conditions noted are these: mouse, primary mouse macrophages (PMM). From the text: 1 In Vitro Anti- T. cruzi (Trypomastigote) Activity and Cytotoxicity Assessment of Hit 1 Analogs ^a | column: PMM CC50 (μM)
Turning to `O=C(Cn1cc(-c2ccc([N+](=O)[O-])cc2)nn1)NCc1ccccn1` [Compound 10, 2-(4-(4-Nitrophenyl)-1H-1,2,3-triazol-1-yl)-N-(yridine-2-ylmethyl)acetamide], the 50% cytotoxic concentration (CC50) was > 50 µM.

Turning to `O=C(Cn1cc(-c2ccc([N+](=O)[O-])cc2)nn1)NCc1cccnc1` [Compound 11, 2-(4-(4-Nitrophenyl)-1H-1,2,3-triazol-1-yl)-N-((pyridin-3-yl)methyl)acetamide], the cytotoxic concentration (CC50) was > 50 µM.

`O=C(Cn1cc(-c2ccc([N+](=O)[O-])cc2)nn1)NCc1ccc(O)cc1` [Compound 12, N-(4-Hydroxybenzyl)-2-(4-(4-nitrophenyl)-1H-1,2,3-triazol-1-yl)acetamide]: the CC50 is > 50 µM.

As for `N#Cc1ccc(CNC(=O)Cn2cc(-c3ccc([N+](=O)[O-])cc3)nn2)cc1` [Compound 13, N-(4-Cyanobenzyl)-2-(4-(4-nitrophenyl)-1H-1,2,3-triazol-1-yl)acetamide], the half-maximal cytotoxic concentration (CC50) turned out to be 35.4 µM.

`N#Cc1ccc(Cn2cc(-c3ccc([N+](=O)[O-])cc3)nn2)cc1` [Compound 15, 4-((4-(4-Nitrophenyl)-1H-1,2,3-triazol-1-yl)methyl)benzonitrile]: the CC50 is > 50 µM.

For the compound `O=C(O)Cn1cc(-c2ccc([N+](=O)[O-])cc2)nn1` [Compound 17, 2-(4-(4-Nitrophenyl)-1H-1,2,3-triazol-1-yl)acetic Acid], the CC50 was > 50 µM.

Regarding `O=C(O)c1ccc(Cn2cc(-c3ccc([N+](=O)[O-])cc3)nn2)cc1` [Compound 18, 4-((4-(4-Nitrophenyl)-1H-1,2,3-triazol-1-yl)methyl)benzoic Acid], the CC50 was > 50 µM.

Turning to `O=[N+]([O-])c1ccc(Cn2cc(-c3ccc(CO)cc3)nn2)cc1` [Compound 21, (4-(1-(4-Nitrobenzyl)-1H-1,2,3-triazol-4-yl)phenyl)methanol], the CC50 was > 50 µM.

Consider `O=[N+]([O-])c1ccc(Cn2cc(-c3cccnc3)nn2)cc1` [Compound 22, 3-(1-(4-Nitrobenzyl)-1H-1,2,3-triazol-4-yl)pyridine], for which the CC50 is > 50 µM.

With `Nc1ccc(-c2cn(Cc3ccc([N+](=O)[O-])cc3)nn2)cc1` [Compound 23, 4-(1-(4-Nitrobenzyl)-1H-1,2,3-triazol-4-yl)aniline], the CC50 was > 50 µM.

`Cn1cncc1-c1cn(Cc2ccc([N+](=O)[O-])cc2)nn1` [Compound 25, 4-(1-Methyl-1H-imidazol-5-yl)-1-(4-nitrobenzyl)-1H-1,2,3-triazole]: the CC50 was > 50 µM.

With `COc1cccc(-c2cn(Cc3ccc([N+](=O)[O-])cc3)nn2)c1` [Compound 26, 4-(3-Methoxyphenyl)-1-(4-nitrobenzyl)-1H-1,2,3-triazole], the CC50 was > 50 µM.

Consider `O=[N+]([O-])c1ccc(Cn2cc(-c3ccccc3CO)nn2)cc1` [Compound 27, (2-(1-(4-Nitrobenzyl)-1H-1,2,3-triazol-4-yl)phenyl)methanol], for which the cytotoxic concentration (CC50) was > 50 µM.

On to `COc1cc(OC)cc(-c2cn(Cc3ccc([N+](=O)[O-])cc3)nn2)c1` [Compound 28, 4-(3,5-Dimethoxyphenyl)-1-(4-nitrobenzyl)-1H-1,2,3-triazole], for which the CC50 was > 50 µM.

Staying with this data set, now noted: primary mouse macrophages; read-out: PMM CC50.
As to `O=[N+]([O-])c1ccc(Cn2cc(-c3ccc([N+](=O)[O-])cc3)nn2)cc1` [Compound 24, 1-(4-Nitrobenzyl)-4-(4-nitrophenyl)-1H-1,2,3-triazole], the CC50 is > 50 µM.

In the next data set the target is trans-sialidase (TcTS).
Experiment: not given
Conditions: literature, acceptor analog; cited from earlier work.
Take `OC[C@@H](O)[C@@H](O[C@@H]1O[C@H](CO)[C@H](O)[C@H](O)[C@H]1O)[C@H](O)[C@@H](O)CO` [lactitol]: the IC50 is 570 µM.

The same data set, now with this note: literature, in words; cited from earlier work.
As to `CCOC(=O)C1=C[C@@H](OC(CC)CC)[C@H](NC(C)=O)[C@@H](N)C1` [Oseltamivir], the inhibition of trans-sialidase entry was “weak inhibition of trans-sialidase in the millimolar range”.

With `CC(=O)N[C@H]1[C@H]([C@H](O)[C@H](O)CO)OC(C(=O)O)=C[C@@H]1N=C(N)N` [Zanamivir], the inhibition of trans-sialidase result was “weak inhibition of trans-sialidase in the millimolar range”.

Staying with this data set, now noted: literature, irreversible inhibitors; cited from earlier work.
For the compound `CC(=O)NC1C(O)C(F)C(F)(C(=O)O)OC1C(O)C(O)CO` (stereo not shown) [2,3-difluorosialic acid], the Ki was 20000 µM.
